Results on six compounds are retold here after patent publication US20240218079A1, “PLASMA KALLIKREIN ANTIBODIES AND USES THEREOF” (Astria Therapeutics, Inc., priority 2021, published 2024).

Counter-ions that a name gives are not always drawn. Like-named read-outs stand apart in the source and are kept apart here. Peptide text beside a SMILES is read from it.

Type in all cases: biochemical
One test concerns the target T1, Cathepsin G (Homo sapiens, UniProt P08311).
T1 sequence (P08311 21-244): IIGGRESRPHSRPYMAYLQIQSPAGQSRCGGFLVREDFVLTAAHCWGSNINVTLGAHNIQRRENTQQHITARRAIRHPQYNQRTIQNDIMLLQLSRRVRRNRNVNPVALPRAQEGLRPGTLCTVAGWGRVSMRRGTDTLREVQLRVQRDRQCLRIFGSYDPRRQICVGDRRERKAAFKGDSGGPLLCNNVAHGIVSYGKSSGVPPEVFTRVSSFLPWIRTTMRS
As to the kind of experiment: Serine protease inhibition assay: Cathepsin G. The settings on record: control compound, 10-dose 3-fold serial dilution starting at 10 μM or 100 uM. On the procedure: (§1) Control compounds were tested in a 10-dose assay with 3-fold serial dilution starting at 10 μM or 100 uM (tPA, Matriptase 2, Kallikrein 5, Kallikrein 2, Kallikrein 1, Granzyme B, and APC). The protease activities were monitored as a time-course measurement of the increase in fluorescence signal from a fluorescently-labeled peptide substrate, and the initial linear portion of the signal slope (signal/min) was analyzed. % Enzyme activity for antibody titrations were calculated respective to vehicle controls in presence of PBS buffer as 100% Activity.
(§2) Empty cells indicate no inhibition or compound activity that could not be fit to an IC50 curve. The IC50 value higher than 1 μM was estimated based on the best curve fitting available.

For the next test, the target named is Granzyme B (Homo sapiens, UniProt P10144). As to the kind of experiment: Serine protease inhibition assay: Granzyme B. The settings on record: control compound, 10-dose 3-fold serial dilution starting at 10 μM or 100 uM. The method, then:
as §1, §2

The next test has as its target Kallikrein 1 (Homo sapiens, UniProt P06870). Kind of test: Serine protease inhibition assay: Kallikrein 1. The settings on record: control compound, 10-dose 3-fold serial dilution starting at 10 μM or 100 uM. On the procedure:
as §1, §2

The next test deals with T2, Factor XIIa (Homo sapiens, UniProt P00748).
T2 sequence (P00748 373-615 limits assumed): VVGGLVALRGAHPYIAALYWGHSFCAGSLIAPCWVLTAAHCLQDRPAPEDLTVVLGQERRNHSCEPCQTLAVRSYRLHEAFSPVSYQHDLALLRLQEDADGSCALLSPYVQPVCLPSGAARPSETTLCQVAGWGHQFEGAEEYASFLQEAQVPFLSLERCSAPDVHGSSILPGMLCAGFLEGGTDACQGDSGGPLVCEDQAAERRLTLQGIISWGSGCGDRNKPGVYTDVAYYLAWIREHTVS
Kind of test: Serine protease inhibition assay: Factor XIIa. The settings on record: control compound, 10-dose 3-fold serial dilution starting at 10 μM or 100 uM. On the procedure:
as §1, §2

The target in a further test is T3, Factor VIIa (Homo sapiens, UniProt P08709).
T3 sequence (P08709 213-466 limits assumed): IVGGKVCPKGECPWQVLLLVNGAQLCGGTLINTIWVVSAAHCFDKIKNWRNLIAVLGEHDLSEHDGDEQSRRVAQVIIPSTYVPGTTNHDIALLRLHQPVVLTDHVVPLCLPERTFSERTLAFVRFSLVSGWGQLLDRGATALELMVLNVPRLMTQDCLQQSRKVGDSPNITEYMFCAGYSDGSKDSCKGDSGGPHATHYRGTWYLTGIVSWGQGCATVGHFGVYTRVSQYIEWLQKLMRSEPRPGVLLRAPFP
T3 sequence (P08709 61-212 limits assumed): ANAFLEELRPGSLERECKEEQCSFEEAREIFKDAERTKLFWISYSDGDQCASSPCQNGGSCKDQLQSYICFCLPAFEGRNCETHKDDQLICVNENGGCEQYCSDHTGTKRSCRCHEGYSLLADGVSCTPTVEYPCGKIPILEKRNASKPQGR
Kind of test: Serine protease inhibition assay: Factor VIIa. The settings on record: control compound, 10-dose 3-fold serial dilution starting at 10 μM or 100 uM. The method, then:
as §1, §2

A further test has as its system trypsin, human pancrease. As to the kind of experiment: Trypsin inhibition assay. The settings on record: 0.25 nM trypsin, PFR-AMC, 2 hours. On the procedure: Fluorescence intensity was measured every 5 minutes. Gabexate mesylate was used as a positive control, in a dilution series starting at 1 μM. The assay was performed in duplicate.
The target in another test is T4, Kallikrein 12 (Homo sapiens, UniProt Q9UKR0).
T4 sequence (Q9UKR0 18-248): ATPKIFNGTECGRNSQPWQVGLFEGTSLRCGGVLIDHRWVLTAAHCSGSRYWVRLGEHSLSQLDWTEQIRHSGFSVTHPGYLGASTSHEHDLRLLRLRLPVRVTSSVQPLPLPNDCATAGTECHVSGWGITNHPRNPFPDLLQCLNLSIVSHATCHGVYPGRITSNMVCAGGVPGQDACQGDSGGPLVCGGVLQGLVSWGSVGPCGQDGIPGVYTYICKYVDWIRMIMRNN
Kind of test: Serine protease inhibition assay: Kallikrein 12. The conditions noted are these: control compound, 10-dose 3-fold serial dilution starting at 10 μM or 100 uM. The method, then:
as §1, §2

The target in the next test is Urokinase (Homo sapiens, UniProt P00749). Kind of test: Serine protease inhibition assay: Urokinase. The settings on record: control compound, 10-dose 3-fold serial dilution starting at 10 μM or 100 uM. On the procedure:
as §1, §2

In the next test the target is Hepsin (Homo sapiens, UniProt P05981). Kind of test: Serine protease inhibition assay: Hepsin. The settings on record: control compound, 10-dose 3-fold serial dilution starting at 10 μM or 100 uM. On the procedure: as §1, §2
The target in another test is Kallikrein 2 (Homo sapiens, UniProt P20151). Kind of test: Serine protease inhibition assay: Kallikrein 2. The conditions noted are these: control compound, 10-dose 3-fold serial dilution starting at 10 μM or 100 uM. On the procedure:
as §1, §2

For another test, the target named is Activated Protein C (Homo sapiens, UniProt P04070). As to the kind of experiment: Serine protease inhibition assay: Activated Protein C. The conditions noted are these: control compound, 10-dose 3-fold serial dilution starting at 10 μM or 100 uM. On the procedure: as §1, §2
For another test, the target named is Plasmin (Homo sapiens, UniProt P00747). Kind of test: Serine protease inhibition assay: Plasmin. The conditions noted are these: control compound, 10-dose 3-fold serial dilution starting at 10 μM or 100 uM. On the procedure: as §1, §2
Another test has as its target T5, Matriptase 2 (Homo sapiens, UniProt Q8IU80).
T5 sequence (Q8IU80 1-811): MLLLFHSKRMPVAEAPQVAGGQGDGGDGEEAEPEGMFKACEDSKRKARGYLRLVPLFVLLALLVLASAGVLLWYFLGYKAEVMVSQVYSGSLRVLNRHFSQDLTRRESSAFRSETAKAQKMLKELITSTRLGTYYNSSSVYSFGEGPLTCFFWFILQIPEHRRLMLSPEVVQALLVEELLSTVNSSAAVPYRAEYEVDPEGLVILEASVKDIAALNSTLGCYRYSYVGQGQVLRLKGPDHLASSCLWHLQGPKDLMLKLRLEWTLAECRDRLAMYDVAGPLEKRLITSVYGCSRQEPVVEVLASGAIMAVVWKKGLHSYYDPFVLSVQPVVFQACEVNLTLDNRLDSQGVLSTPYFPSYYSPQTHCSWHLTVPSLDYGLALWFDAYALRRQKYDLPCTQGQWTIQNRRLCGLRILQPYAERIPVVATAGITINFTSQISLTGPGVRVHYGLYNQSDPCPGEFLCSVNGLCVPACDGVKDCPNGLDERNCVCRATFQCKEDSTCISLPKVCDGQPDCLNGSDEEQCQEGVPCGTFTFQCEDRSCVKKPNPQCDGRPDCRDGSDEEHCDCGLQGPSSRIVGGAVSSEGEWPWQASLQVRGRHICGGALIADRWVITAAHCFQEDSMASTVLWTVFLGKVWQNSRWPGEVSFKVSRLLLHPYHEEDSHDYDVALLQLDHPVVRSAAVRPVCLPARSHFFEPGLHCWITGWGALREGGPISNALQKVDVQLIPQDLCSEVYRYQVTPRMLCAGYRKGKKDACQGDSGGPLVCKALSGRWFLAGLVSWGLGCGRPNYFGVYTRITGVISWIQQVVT
Kind of test: Serine protease inhibition assay: Matriptase 2. The settings on record: control compound, 10-dose 3-fold serial dilution starting at 10 μM or 100 uM. On the procedure:
as §1, §2

The target of the next test is T6, Kallikrein 5 (Homo sapiens, UniProt Q9Y337).
T6 sequence (Q9Y337 23-293): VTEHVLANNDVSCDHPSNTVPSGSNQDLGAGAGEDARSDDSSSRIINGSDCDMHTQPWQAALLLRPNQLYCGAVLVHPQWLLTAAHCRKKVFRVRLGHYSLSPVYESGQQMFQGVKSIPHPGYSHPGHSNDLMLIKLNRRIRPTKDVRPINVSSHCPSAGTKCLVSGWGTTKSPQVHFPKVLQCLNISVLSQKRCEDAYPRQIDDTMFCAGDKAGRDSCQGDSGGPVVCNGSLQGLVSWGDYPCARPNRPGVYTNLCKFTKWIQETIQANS
As to the kind of experiment: Serine protease inhibition assay: Kallikrein 5. The settings on record: control compound, 10-dose 3-fold serial dilution starting at 10 μM or 100 uM. On the procedure:
as §1, §2

A further test deals with tPA (Homo sapiens, UniProt P00750). As to the kind of experiment: Serine protease inhibition assay: tPA. The conditions noted are these: control compound, 10-dose 3-fold serial dilution starting at 10 μM or 100 uM. The method, then: as §1, §2
For the next test, the target named is Thrombin a (Homo sapiens, UniProt P00734). Kind of test: Serine protease inhibition assay: Thrombin a. The settings on record: control compound, 10-dose 3-fold serial dilution starting at 10 μM or 100 uM. The method, then:
as §1, §2

Chain of Activated Protein C (P04070 212-461 limits assumed): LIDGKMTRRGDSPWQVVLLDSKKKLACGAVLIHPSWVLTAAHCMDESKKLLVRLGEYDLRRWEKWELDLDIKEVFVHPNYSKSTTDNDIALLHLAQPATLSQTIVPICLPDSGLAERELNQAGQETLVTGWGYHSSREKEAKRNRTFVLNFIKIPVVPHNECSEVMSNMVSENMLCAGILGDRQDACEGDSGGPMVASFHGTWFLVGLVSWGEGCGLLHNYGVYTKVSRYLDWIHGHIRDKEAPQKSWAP
Chain of Activated Protein C (P04070 43-197 limits assumed): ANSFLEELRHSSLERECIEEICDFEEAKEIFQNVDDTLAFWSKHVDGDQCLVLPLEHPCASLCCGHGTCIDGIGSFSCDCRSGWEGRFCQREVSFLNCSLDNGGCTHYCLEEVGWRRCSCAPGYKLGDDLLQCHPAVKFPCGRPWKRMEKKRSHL
Chain of Plasmin (P00747 581-810 limits assumed, species assumed): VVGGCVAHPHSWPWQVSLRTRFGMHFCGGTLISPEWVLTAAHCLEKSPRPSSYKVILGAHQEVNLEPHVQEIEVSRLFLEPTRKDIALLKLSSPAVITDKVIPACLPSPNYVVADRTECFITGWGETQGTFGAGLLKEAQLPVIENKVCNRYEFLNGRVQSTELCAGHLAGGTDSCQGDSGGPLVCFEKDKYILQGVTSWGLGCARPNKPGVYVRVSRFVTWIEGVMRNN
Chain of Plasmin (P00747 97-580 limits assumed, species assumed): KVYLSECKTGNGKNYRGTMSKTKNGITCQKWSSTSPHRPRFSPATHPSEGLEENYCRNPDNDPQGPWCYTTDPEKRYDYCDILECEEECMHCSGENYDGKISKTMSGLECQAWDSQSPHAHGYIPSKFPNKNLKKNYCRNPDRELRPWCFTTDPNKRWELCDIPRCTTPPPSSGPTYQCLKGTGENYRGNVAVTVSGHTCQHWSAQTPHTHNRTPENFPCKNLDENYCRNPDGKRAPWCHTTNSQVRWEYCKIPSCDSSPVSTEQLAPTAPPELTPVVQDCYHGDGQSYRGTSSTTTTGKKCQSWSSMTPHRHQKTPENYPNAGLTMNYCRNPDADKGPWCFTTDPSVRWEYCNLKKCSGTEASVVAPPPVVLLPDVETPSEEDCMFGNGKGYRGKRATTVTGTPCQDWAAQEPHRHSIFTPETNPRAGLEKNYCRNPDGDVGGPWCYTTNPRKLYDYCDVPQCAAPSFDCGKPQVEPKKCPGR
Chain of Granzyme B (P10144 21-247, species assumed): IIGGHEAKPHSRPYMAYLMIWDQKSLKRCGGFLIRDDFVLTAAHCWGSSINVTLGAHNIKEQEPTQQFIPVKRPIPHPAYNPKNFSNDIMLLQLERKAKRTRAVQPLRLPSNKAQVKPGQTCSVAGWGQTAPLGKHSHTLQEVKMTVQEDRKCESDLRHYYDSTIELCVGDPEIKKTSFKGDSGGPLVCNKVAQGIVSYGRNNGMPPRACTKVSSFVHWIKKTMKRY
Chain of tPA (P00750 36-562, species assumed): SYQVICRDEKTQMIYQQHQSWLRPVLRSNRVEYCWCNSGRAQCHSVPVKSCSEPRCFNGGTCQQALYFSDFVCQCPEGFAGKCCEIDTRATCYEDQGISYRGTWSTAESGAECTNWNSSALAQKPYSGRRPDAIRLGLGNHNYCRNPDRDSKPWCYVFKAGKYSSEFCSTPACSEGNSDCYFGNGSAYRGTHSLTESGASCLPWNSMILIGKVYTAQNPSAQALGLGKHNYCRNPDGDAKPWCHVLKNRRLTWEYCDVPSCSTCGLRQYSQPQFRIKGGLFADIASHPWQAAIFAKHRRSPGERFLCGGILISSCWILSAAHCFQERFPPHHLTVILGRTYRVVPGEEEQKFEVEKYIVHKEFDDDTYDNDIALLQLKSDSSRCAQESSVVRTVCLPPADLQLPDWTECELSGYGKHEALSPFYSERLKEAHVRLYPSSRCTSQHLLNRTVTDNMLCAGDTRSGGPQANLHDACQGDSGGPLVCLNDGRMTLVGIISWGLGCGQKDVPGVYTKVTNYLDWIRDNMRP
Chain of Kallikrein 1 (P06870 25-262, species assumed): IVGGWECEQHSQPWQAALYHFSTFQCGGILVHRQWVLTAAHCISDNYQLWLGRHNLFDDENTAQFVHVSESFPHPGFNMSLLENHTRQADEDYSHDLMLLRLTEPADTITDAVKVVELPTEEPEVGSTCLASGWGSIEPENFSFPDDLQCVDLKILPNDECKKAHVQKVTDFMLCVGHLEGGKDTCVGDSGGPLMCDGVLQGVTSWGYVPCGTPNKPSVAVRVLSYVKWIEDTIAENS
Chain of Hepsin (P05981 whole entry): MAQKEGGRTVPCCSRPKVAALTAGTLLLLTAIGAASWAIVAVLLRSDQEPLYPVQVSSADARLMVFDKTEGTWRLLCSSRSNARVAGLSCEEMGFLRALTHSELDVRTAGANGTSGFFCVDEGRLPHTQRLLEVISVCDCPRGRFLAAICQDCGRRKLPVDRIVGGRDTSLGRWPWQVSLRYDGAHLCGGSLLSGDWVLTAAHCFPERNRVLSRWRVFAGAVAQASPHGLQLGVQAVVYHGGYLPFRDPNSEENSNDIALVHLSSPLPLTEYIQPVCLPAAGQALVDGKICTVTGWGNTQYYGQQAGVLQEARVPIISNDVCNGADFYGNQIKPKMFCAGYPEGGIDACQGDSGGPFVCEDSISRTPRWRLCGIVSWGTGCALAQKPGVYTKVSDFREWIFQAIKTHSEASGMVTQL
Chain of Kallikrein 2 (P20151 25-261, species assumed): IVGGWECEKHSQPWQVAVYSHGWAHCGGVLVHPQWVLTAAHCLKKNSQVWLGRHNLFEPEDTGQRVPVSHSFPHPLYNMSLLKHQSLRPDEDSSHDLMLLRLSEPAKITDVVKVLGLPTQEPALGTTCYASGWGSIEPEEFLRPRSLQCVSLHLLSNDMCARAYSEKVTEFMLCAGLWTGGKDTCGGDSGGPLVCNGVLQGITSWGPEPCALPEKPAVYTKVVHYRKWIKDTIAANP

For orientation: IC50 means the point on the concentration scale where inhibition reaches its midpoint. In turn, `CC(C)C[C@H](NC(=O)[C@@H](NC(=O)N[C@@H](Cc1ccccc1)C(=O)O)[C@@H]1CCN=C(N)N1)C(=O)N[C@H](C=O)Cc1ccccc1` [Chymostatin] returned an IC50 against Cathepsin G of 4.09 µM.
Regarding `CC[C@H](C)[C@H](NC(C)=O)C(=O)N[C@@H](CCC(=O)O)C(=O)N[C@H](C(=O)N[C@H](C=O)CC(=O)O)[C@@H](C)O` [IETD-CHO] (Ac-IETD-aldehyde; N-terminus assumed), the concentration for half-maximal inhibition (IC50) against Granzyme B was 178 nM.
As for `CC(=O)N[C@@H](CC(C)C)C(=O)N[C@@H](CC(C)C)C(=O)N[C@H](C=O)CCCNC(=N)N` [Leupeptin], half-maximal inhibition at Kallikrein 1 (IC50) required 2990 nM.
On to `N=C(N)c1ccc2cc(OC(=O)c3ccc(N=C(N)N)cc3)ccc2c1` [Nafamostat mesylate], for which half-maximal inhibition on Factor XIIa (IC50) was put at 23.2 nM.
Compound `N=C(N)c1ccc2nc(-c3cc(CC(=O)N[C@@H](CC(=O)O)C(=O)O)cc(-c4cc(S(N)(=O)=O)ccc4O)c3O)[nH]c2c1` [PCI 27483] gave a half-maximal inhibitory concentration (IC50) at Factor VIIa of 141 nM.
As to “Gabexate mesylate [Gabexate mesylate (GM)]”, the concentration for half-maximal inhibition (IC50) in the test on trypsin, human pancrease (read-out: Compound IC50 (M) Data 1) is 2.13e-09 M; in the test with trypsin, human pancrease (read-out: Compound IC50 (M) Data 2) it was 2.33e-09 M; at Kallikrein 12, 32.5 nM; against Urokinase, 16.5 nM; on Hepsin, 51 nM; against Kallikrein 2, 139 nM. Further, the IC50 amounted to 64.8 nM at Activated Protein C; 253 nM on Plasmin; 201 nM against Matriptase 2; 8.73 µM against Kallikrein 5; 1060 nM on tPA; 837 nM on Thrombin a.
